Results published in patent US6686381B2, “Thiazole derivatives” (Hoffmann-La Roche Inc., priority 2002, dated 2004).
pIC50: −log10 of the molar value.

Target: T1, mouse NPY5-receptor (mNPY5) (Mus musculus, UniProt O70342)
T1 construct: The full-length cDNA encoding the mouse NPY5 (mNPY5) receptor was amplified from mouse brain cDNA; expressed in transfected cells; membranes used
T1 sequence (O70342 1-466): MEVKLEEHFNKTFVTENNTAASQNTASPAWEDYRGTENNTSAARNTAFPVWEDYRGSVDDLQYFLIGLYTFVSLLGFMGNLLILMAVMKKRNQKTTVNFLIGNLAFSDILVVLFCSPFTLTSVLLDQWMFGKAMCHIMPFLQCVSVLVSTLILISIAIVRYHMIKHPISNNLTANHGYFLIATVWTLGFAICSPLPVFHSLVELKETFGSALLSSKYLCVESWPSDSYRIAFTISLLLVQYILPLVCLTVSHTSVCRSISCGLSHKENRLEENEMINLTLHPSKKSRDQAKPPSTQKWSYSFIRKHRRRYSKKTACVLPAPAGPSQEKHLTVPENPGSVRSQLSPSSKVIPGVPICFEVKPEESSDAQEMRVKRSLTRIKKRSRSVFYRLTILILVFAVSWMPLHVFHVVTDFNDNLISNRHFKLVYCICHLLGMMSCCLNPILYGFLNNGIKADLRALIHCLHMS
Assay: Radioligand competition binding
Conditions: membranes of HEK293 cells expressing recombinant mNPY5; 100 pM [125I]labelled peptide YY; 1 h at 22° C.
Excerpt: Cloning of Mouse NPY5 Receptor cDNAs:
The full-length cDNA encoding the mouse NPY5 (mNPY5) receptor was amplified from mouse brain cDNA using specific primers, designed based on the published sequence, and Pfu DNA-Polymerase. The amplification product was subcloned into the mammalian expression vector pcDNA3 using EcoRI and XhoI restriction sites. Positive clones were sequenced and one clone, encoding the published sequence (see Borowsky, B., et al., Molecular biology and pharmacology of multiple NPY Y5 receptor species homologs, Regul. Pept. (1998) 75-76:45-53) was selected for generation of stable cell clones.
Human embryonic kidney 293 (HEK293) cells were transfected with 10 μg mNPY5 DNA using the lipofectamine reagent (Gibco BRL) according to the manufacturer's instruction. Two days after transfection, geneticin selection (1 mg/ml) was initiated and several stable clones were isolated. One clone was further used for pharmacological characterization.
Radioligand Competition Binding:
Human embryonic kidney 293 cells (HEK293), expressing recombinant mouse NPY5-receptor (mNPY5) were broken by three freeze/thawing cycles in hypotonic Tris buffer (5 mM, pH 7.4, 1 mM MgCl2), homogenized and centrifuged at 72,000×g for 15 min. […] Protein was determined according to the method of Lowry using bovine serum albumine (BSA) as a standard. […]

pIC50	Compound
8.27	O=C(c1ccccn1)c1cnc(NCCCNS(=O)(=O)c2ccccc2F)s1 [Example 1, 2-Fluoro-N-{3-[5-(pyridine-2-carbonyl)-thiazol-2-ylamino]-propyl}-benzenesulfonamide]
8.22	COc1ccc(C)cc1S(=O)(=O)NCCCNc1nc(C(=O)c2ccccc2C)cs1 [Example 140, 2-Methoxy-5-methyl-N-{3-[4-(2-methyl-benzoyl)-thiazol-2-ylamino]-propyl}-benzenesulfonamide]
